How the values were obtained:
B16-F10 cells [1] = assay: Western blot, IRF1, STAT1 and phospho-Tyr701-STAT1 at 2 h post IFNγ; assay type: cell-based, murine; settings: Stub1-null B16-F10, 2 h
Method: Cells were dissociated from the wells with 0.25% trypsin (Gibco, 25200056). After rinsing with 0.5 ml PBS, the cell pellets were lysed with chilled cell lysis buffer (Cell Signaling Technology, #9803) supplemented with Halt protease inhibitor cocktail (Thermo Scientific, #78430) and phosphatase inhibitor (Sigma-Aldrich, # 4906837001) for 30 min with intermittent vortexing. The lysate was transferred into PCR-strip tubes and sonicated in a chilled water bath sonicator (QSonica). Lysates were clarified by centrifugation at 15,000 rpm at 4 °C for 15 min. Protein concentration was determined using BCA protein assay kit (Pierce, #23225). The lysates were mixed with LDS sample buffer (Life Technologies, NP0008) and sample reducing agent (Life Technologies, NP0009), followed by heating at 70 °C for 10 min to fully denature the protein. […] Membrane blots were pre-stained with total protein stain (LI-COR, # 926-11016) and imaged with Odyssey CLx. […] The blots were finally probed, for overnight at 4 °C, with the appropriate primary antibodies diluted in Intercept (TBS) blocking buffer supplemented with 0.1% (v/v) Tween-20, followed by the secondary antibodies (IRDye 800CW donkey anti-rabbit or anti-mouse IgG, LI-COR) for 1 h at room temperature. Fluorescent signals were imaged and quantified using Odyssey CLx and Image Studio v5.0. […]

B16-F10 cells [2] = assay: Proteomics by mass spectrometry; assay type: cell-based, murine
Method: After overnight incubation, the culture media were replaced with fresh media (DMEM + 10% FBS) supplemented with 0.03 ng ml^−1 of recombinant mouse IFNγ (R&D Systems, #485-MI-100). After 24 h treatment, the cells were trypsinized, collected and washed twice with 0.5 ml PBS. The cell pellets collected from three independent experiments on separate day were lysed in 100 µl of lysis buffer containing 4% sodium dodecyl sulfate, 50 mM Tris–HCl pH 7.5, 50 µg ml^−1 of DNase (Roche, #10104159001), 50 µg ml^−1 of RNase (Roche, #10109169001) and Halt protease inhibitor cocktail (Thermo Scientific, #78430) on ice for 30 min followed by 65 °C for 30 min. Lysates were clarified by centrifugation at 16,000 g at 10 °C for 30 min. Protein content was re-extracted from the pellet with 50 µl of lysis buffer, sonicated with a single burst using a probe sonicator and heated at 95 °C for 10 min before centrifugation at 16,000 g at 10 °C for 15 min. Lysates from first and second extractions were pooled. Protein concentration was determined using BCA protein assay kit (Pierce, # 23225). Detergent removal and protein digestion were performed in centrifugal suspension trap columns (Protifi, C02-micro) according to the manufacturer’s instructions. Briefly, 80 µg protein extract from each sample was reduced with 50 mM dithiothreitol (Sigma, #43815) at 95 °C for 10 min and then alkylated with 100 mM iodoacetamide (Sigma, I2512) in the dark at ambient temperature for 30 min. The samples were acidified with 1.2% of phosphoric acid and mixed well with washing buffer consisting of 90% methanol and 100 mM ammonium bicarbonate. The samples were transferred to the suspension trap columns and centrifuged at 4000 g for 30 s. The columns were washed 3 times with washing buffer. Proteins trapped in the suspension bed were digested in 50 mM ammonium bicarbonate with trypsin and endoproteinase Lys-C (Promega, V5073) at enzyme to protein ratio 1:25 in a 47 °C waterbath for 2 h. Peptides were eluted firstly with 50 mM ammonium bicarbonate, then with 0.2% formic acid and lastly with 50% acetonitrile and 0.2% formic acid. The eluates were pooled and vacuum dried completely. Dried peptides were reconstituted with 0.1% formic acid in water, followed by injecting 4 µg for mass spectrometry analysis. Peptides were loaded on a reverse phase EASY-Spray column (50 cm × 75 μm inner diameter) operated using Easy-nLC 1200 (Thermo Fisher Scientific) coupled online to a Q-Exactive HF-X mass spectrometer (Thermo Fisher Scientific). Peptides were separated using a 120 min linear gradient at a flow rate of 300 nL min^−1. The Q-Exactive was operated in ‘top-10’ data-dependent acquisition (DDA) mode with full scan acquired at a resolution of 120,000 (scan range 200–1800 m/z) with an automatic gain control (AGC) target of 3e6. The top ten most abundant ions from the full scan were isolated with an isolation width of 0.7 m/z and fragmented by higher energy collisional dissociation (HCD) with normalized collision energy (NCE) of 27. MS/MS scan was acquired at a resolution of 30,000 with an AGC target of 1e5. The default charge state was set at 2 and dynamic exclusion was enabled for 10 s. Maximum ion injection time for full scan and MS/MS scan were 100 ms and 105 ms respectively.
DDA raw files were processed with Proteome Discoverer 2.4 using Sequest HT search engine where mass spectrometric data was searched against SwissProt TaxID 10090 mouse database (v2017-10-25). Percolator was used to validate search results based on the concatenated mode where only the best scoring PSMs (target/decoy) were considered. Trypsin was specified as the enzyme, cleaving after all lysine and arginine residues and allowing up to two missed cleavages. Carbamidomethylation of cysteines was set as fixed modification while variable modifications included oxidation of methionine, acetylation of N-terminus, N-terminal loss of methionine and N-terminal loss of metionine along with the addition of an acetyl group. […]

Substance: IFNγ
- Early induction of IRF1 and phospho-Tyr701-STAT1 (B16-F10 cells [1]): Loss of Stub1 lowers the stimulating threshold of IFNγ

Substance: gStub1 #1 (guide GCATTGCTAAGAAGAAGCGC; chemistry not given here)
- Log2(FC) (B16-F10 cells [2]; B2M (Fig. 2g)): 2.591
- Log2(FC) (B16-F10 cells [2]; BST2 (Fig. 2g)): 2.607
- Log2(FC) (B16-F10 cells [2]; ERAP1 (Fig. 2g)): 2.501
- Log2(FC) (B16-F10 cells [2]; GBP2 (Fig. 2g)): 4.916
- Log2(FC) (B16-F10 cells [2]; H2-D1 (Fig. 2g)): 1.708
- Log2(FC) (B16-F10 cells [2]; IFI35 (Fig. 2g)): 2.548
- Log2(FC) (B16-F10 cells [2]; IRGM1 (Fig. 2g)): 4.787
- Log2(FC) (B16-F10 cells [2]; MOV10 (Fig. 2g)): 1.934
- Log2(FC) (B16-F10 cells [2]; PSME1 (Fig. 2g)): 1.818
- Log2(FC) (B16-F10 cells [2]; PSME2 (Fig. 2g)): 2.036
- Log2(FC) (B16-F10 cells [2]; STAT1 (Fig. 2g)): 2.521
- Log2(FC) (B16-F10 cells [2]; STAT3 (Fig. 2g)): 1.035
- Log2(FC) (B16-F10 cells [2]; TGTP1/TGTP2 (Fig. 2g)): 7.1

From PMC9388626, “STUB1 is an intracellular checkpoint for interferon gamma sensing” (Scientific Reports, 2022)
